The record followed here is patent US20250136606A1, “MODULATORS OF TRPML, THEIR COMPOSITIONS AND METHODS OF USE” (Caraway Therapeutics, Inc., priority 2021, published 2025).

Common to all, as to assay type: cell-based
Details in all cases: fluorescent calcium assay

One test has as its target TRPML1 (Homo sapiens, UniProt Q9GZU1). The experiment in a line: Fluorescent TRPML1 assay (Fluo4-AM calcium fluorescence in doxycycline-induced HEK-293 Trex cells). The essentials: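 hTRPML1 (mutated for cell-surface expression) in HEK-293 Trex, dox 0.5 ug/mL o/n; Fluo4-AM 1 uM ~60 min, then ~60 min de-esterification, dark; modified Ringer's + 10 mM Ca. Cmpds 20 uM–6 nM final, half-log, n=3. Ex480/Em540; % activity vs ctrls; EC50 by nonlinear regression.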

The next test has as its target T1, TRPML2 (Homo sapiens, UniProt Q8IZK6).
T1 construct: expressed in transfected cells
T1 sequence (Q8IZK6 1-566): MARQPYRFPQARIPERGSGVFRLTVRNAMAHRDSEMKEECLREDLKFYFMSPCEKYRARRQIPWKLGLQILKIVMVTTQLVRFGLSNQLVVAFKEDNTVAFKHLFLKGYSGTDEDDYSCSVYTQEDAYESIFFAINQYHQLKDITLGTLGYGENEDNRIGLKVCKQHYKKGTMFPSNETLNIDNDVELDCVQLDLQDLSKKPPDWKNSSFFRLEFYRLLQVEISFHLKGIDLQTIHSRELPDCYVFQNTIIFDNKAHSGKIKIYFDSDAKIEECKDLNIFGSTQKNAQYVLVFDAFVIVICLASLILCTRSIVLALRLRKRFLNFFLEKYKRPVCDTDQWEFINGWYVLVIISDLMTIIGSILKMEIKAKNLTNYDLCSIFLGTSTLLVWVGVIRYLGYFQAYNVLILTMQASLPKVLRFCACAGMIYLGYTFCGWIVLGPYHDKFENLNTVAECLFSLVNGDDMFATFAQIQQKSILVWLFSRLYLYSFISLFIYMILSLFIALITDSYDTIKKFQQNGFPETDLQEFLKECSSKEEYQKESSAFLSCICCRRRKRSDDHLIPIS
The experiment in a line: Fluorescent TRPML2 assay (performed as for TRPML1, substituting the TRPML2 subtype). The essentials:
(§1)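 HEK-293 Trex, dox-induced (0.5 ug/mL), mutated for surface expression. Fluo4-AM 1 micromolar load ~60 min, dark; buffer modified Ringer's, 10 mM Ca. Cpds 20 micromolar–6 nanomolar final, half-log, n=3. Read ex 480/em 540; % activity vs controls; EC50 nonlinear fit.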

In the next test the target is T2, TRPML3 (Homo sapiens, UniProt Q8TDD5).
T2 construct: expressed in transfected cells
T2 sequence (Q8TDD5 1-553): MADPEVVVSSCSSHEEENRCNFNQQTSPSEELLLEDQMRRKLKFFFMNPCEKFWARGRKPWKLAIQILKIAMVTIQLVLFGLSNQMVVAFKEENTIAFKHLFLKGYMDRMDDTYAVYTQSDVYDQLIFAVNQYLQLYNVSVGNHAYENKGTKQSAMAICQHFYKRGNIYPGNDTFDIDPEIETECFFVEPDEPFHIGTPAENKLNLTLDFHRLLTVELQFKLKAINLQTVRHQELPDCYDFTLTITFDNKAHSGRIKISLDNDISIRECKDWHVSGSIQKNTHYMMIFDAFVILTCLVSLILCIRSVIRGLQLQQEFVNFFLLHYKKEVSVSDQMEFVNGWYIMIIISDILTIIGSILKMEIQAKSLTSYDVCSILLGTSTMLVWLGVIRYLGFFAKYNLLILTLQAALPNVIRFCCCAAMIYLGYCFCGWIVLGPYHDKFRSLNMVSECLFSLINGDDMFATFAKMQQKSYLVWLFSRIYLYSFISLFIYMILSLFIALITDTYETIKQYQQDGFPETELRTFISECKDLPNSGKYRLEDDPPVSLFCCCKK
The test can be described thus: Fluorescent TRPML3 assay (performed as for TRPML1, substituting the TRPML3 subtype). In outline: as §1

Sequence of TRPML1 (Q9GZU1 whole entry L15A/L16A/L577A/L578A, form open): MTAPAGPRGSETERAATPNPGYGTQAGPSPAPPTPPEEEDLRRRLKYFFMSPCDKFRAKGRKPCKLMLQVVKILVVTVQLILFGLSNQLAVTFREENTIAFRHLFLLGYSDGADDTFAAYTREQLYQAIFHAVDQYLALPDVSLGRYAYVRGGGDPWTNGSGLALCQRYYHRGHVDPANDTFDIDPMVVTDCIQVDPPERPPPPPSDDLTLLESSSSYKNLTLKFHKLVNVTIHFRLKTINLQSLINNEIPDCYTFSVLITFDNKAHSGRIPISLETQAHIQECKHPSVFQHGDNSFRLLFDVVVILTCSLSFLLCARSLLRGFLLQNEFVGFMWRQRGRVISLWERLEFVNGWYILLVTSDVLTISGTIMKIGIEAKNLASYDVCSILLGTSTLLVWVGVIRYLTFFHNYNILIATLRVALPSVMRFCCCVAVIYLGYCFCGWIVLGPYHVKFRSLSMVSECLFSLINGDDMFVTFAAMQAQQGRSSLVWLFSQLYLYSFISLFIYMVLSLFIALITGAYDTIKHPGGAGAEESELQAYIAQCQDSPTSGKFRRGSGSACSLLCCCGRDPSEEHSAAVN

Take `C[C@@H]1CN(c2ncnc3c2c(-c2ccccc2F)cn3-c2cc(C#N)ccn2)CCN1C(=O)OCC(F)(F)F` [Compound 378, 2,2,2-trifluoroethyl (R)-4-(7-(4-cyanopyridin-2-yl)-5-(2-fluorophenyl)-7H-pyrrolo[2,3-d]pyrimidin-4-yl)-2-methylpiperazine-1-carboxylate]: the EC50 on TRPML1, at TRPML2 and on TRPML3 was below 100 nM each time.
Turning to `C[C@H]1COCCN1c1cn(-c2cccc(C#N)c2)c2ncnc(N3CCN(C(=O)OC(C)(C)C)C[C@@H]3C)c12` [Compound 379, tert-butyl (S)-4-(7-(3-cyanophenyl)-5-((S)-3-methylmorpholino)-7H-pyrrolo[2,3-d]pyrimidin-4-yl)-3-methylpiperazine-1-carboxylate], the EC50 – broadly, the concentration needed to bring the measured effect to its halfway point – at TRPML1 is 500 to 2000 nM; on TRPML2 it was above 2000 nM; on TRPML3, 500 to 2000 nM.
For `C[C@H]1CN(C(=O)OC(C)(C)C)CCN1c1ncnc2c1c(N1CCN(C)CC1)cn2-c1cc(C#N)ccn1` [Compound 381, tert-butyl (S)-4-(7-(4-cyanopyridin-2-yl)-5-(4-methylpiperazin-1-yl)-7H-pyrrolo[2,3-d]pyrimidin-4-yl)-3-methylpiperazine-1-carboxylate], the EC50 on TRPML1, on TRPML2 and on TRPML3 was above 2000 nM each time.
With `C[C@@H]1CN(c2ncnc3c2c(C2CC2)cn3-c2cc(C#N)ccn2)CCN1C(=O)OC(C)(C)C` [Compound 384, tert-butyl (R)-4-(7-(4-cyanopyridin-2-yl)-5-cyclopropyl-7H-pyrrolo[2,3-d]pyrimidin-4-yl)-2-methylpiperazine-1-carboxylate], the figures for the EC50 at TRPML1, on TRPML2 and at TRPML3 were below 100 nM, 100 to 500 nM and below 100 nM, respectively.
As to `C[C@H]1CN(C(=O)OC(C)(C)C)CCN1c1ncnc2c1c(C1CC1)cn2-c1ccc(F)c(OC(F)(F)F)c1` [Compound 387, tert-butyl (S)-4-(5-cyclopropyl-7-(4-fluoro-3-(trifluoromethoxy)phenyl)-7H-pyrrolo[2,3-d]pyrimidin-4-yl)-3-methylpiperazine-1-carboxylate], the figures for the EC50 at TRPML1, on TRPML2 and on TRPML3 were 500 to 2000 nM, 100 to 500 nM and below 100 nM, respectively.
In the same order, the values of `C[C@@H]1CN(c2ncnc3c2c(N2CCC2)cn3-c2cc(C#N)ccn2)CCN1C(=O)OC(C)(C)C` [Compound 388, tert-butyl (R)-4-(5-(azetidin-1-yl)-7-(4-cyanopyridin-2-yl)-7H-pyrrolo[2,3-d]pyrimidin-4-yl)-2-methylpiperazine-1-carboxylate] are below 100 nM, below 100 nM and below 100 nM.
`C[C@@H]1CN(C(=O)OC(C)(C)C)CCN1c1ncnc2c1c(-c1ccccc1F)cn2-c1cc(C#N)ccn1` [Compound 389, tert-butyl (R)-4-(7-(4-cyanopyridin-2-yl)-5-(2-fluorophenyl)-7H-pyrrolo[2,3-d]pyrimidin-4-yl)-3-methylpiperazine-1-carboxylate]: the results for the EC50 on TRPML1, on TRPML2 and at TRPML3 were 500 to 2000 nM, 100 to 500 nM and below 100 nM, respectively.
The matching figures for `C[C@@H]1CN(c2ncnc3c2c(-c2ccccc2F)cn3-c2cc(C#N)ccn2)[C@@H](C)CN1C(=O)OC(C)(C)C` [Compound 390]: below 100 nM, below 100 nM and below 100 nM.
In the same order, the values of `CC(C)(C)OC(=O)N1CCN(c2ncnc3c2c(-c2ccccc2F)cn3-c2cc(C#N)ccn2)CC1(C)C` [Compound 391] are below 100 nM, 100 to 500 nM and below 100 nM.
As for `C[C@H]1CN(C(=O)OC(C)(C)C)CCN1c1ncnc2c1c(C1CC1)cn2C1CCC1` [Compound 398, tert-butyl (S)-4-(7-cyclobutyl-5-cyclopropyl-7H-pyrrolo[2,3-d]pyrimidin-4-yl)-3-methylpiperazine-1-carboxylate], the values for the EC50 at TRPML1, on TRPML2 and at TRPML3 were below 100 nM, 100 to 500 nM and 100 to 500 nM, respectively.
Take `C[C@H]1CN(C(=O)OC(C)(C)C)CCN1c1ncnc2c1c(N1CCCC1)cn2-c1cc(Cl)cc(C#N)c1` [Compound 399, tert-butyl (S)-4-(7-(3-chloro-5-cyanophenyl)-5-(pyrrolidin-1-yl)-7H-pyrrolo[2,3-d]pyrimidin-4-yl)-3-methylpiperazine-1-carboxylate]: the EC50 on TRPML1 is 100 to 500 nM; on TRPML2 it was 500 to 2000 nM; at TRPML3, below 100 nM.
The matching figures for `C[C@H]1CN(C(=O)OC(C)(C)C)CCN1c1ncnc2c1c(CN1CCCC1)cn2-c1cccc(C#N)c1` [Compound 400, tert-butyl (S)-4-(7-(3-cyanophenyl)-5-(pyrrolidin-1-ylmethyl)-7H-pyrrolo[2,3-d]pyrimidin-4-yl)-3-methylpiperazine-1-carboxylate]: 500 to 2000 nM, above 2000 nM and 500 to 2000 nM.
The matching figures for `C[C@H]1CN(C(=O)OC(C)(C)C)CCN1c1ncnc2c1c(N1CCCC1)cn2C1CCCC(F)(F)C1` (stereo partly drawn) [Compound 401, tert-butyl (3S)-4-(7-(3,3-difluorocyclohexyl)-5-(pyrrolidin-1-yl)-7H-pyrrolo[2,3-d]pyrimidin-4-yl)-3-methylpiperazine-1-carboxylate]: 100 to 500 nM, above 2000 nM and below 100 nM.
For `C[C@H]1CN(C(=O)OC(C)(C)C)CCN1c1ncnc2c1c(C1(C)CC1)cn2-c1cccc(C#N)c1` [Compound 402, tert-butyl (S)-4-(7-(3-cyanophenyl)-5-(1-methylcyclopropyl)-7H-pyrrolo[2,3-d]pyrimidin-4-yl)-3-methylpiperazine-1-carboxylate], the EC50 on TRPML1 was below 100 nM; on TRPML2, 500 to 2000 nM; at TRPML3, below 100 nM.
For `Cc1cc(C#N)cc(-n2cc(C3CC3)c3c(N4CCN(C(=O)OC(C)(C)C)C[C@@H]4C)ncnc32)n1` [Compound 403, tert-butyl (S)-4-(7-(4-cyano-6-methylpyridin-2-yl)-5-cyclopropyl-7H-pyrrolo[2,3-d]pyrimidin-4-yl)-3-methylpiperazine-1-carboxylate], the results for the EC50 on TRPML1, on TRPML2 and on TRPML3 were 100 to 500 nM, 500 to 2000 nM and below 100 nM, respectively.
In the same order, the values of `Cc1cc(C#N)cc(-n2cc(-c3ccccc3F)c3c(N4CCN(C(=O)OC(C)(C)C)C[C@@H]4C)ncnc32)n1` [Compound 404, tert-butyl (S)-4-(7-(4-cyano-6-methylpyridin-2-yl)-5-(2-fluorophenyl)-7H-pyrrolo[2,3-d]pyrimidin-4-yl)-3-methylpiperazine-1-carboxylate] are below 100 nM, below 100 nM and below 100 nM.
With `C[C@H]1CN(C(=O)OC(C)(C)C)CCN1c1ncnc2c1c(N1CCC(C)(C)C1)cn2-c1cc(C#N)ccn1` [Compound 405, tert-butyl (S)-4-(7-(4-cyanopyridin-2-yl)-5-(3,3-dimethylpyrrolidin-1-yl)-7H-pyrrolo[2,3-d]pyrimidin-4-yl)-3-methylpiperazine-1-carboxylate], the EC50 at TRPML1, at TRPML2 and on TRPML3 was below 100 nM throughout.
